Assay results published in patent US11220491B2, “Photoprotective compositions containing Malassezia-derived compounds and/or chemical analogs thereof” (Versicolor Technologies, LLC, priority 2018, dated 2022).

How the values were obtained:
[1] = system: MelanoDerm™ Skin Model; assay: MelanoDerm Study 1, MTT tissue viability (Example 19); type: cell-based, human; settings: 200 μM compared to 50 μM
Source text: Treatments were as follows: 7-days of treatment in alternate days (7TD); 7-days of treatment in alternate days followed by 7-days without treatment (recovery) (7TD+7NTD); and 14-days of treatment in alternate days (14TD). The study also evaluated the potential dermal irritation induced by each test article as measured by the conversion of MTT by MelanoDerm™ tissues after repeated exposures to the test articles, over the treatment periods specified in the protocol.
(Berridge et al., 1996). The toxicity of the test articles to the tissue, which is evidence for potential dermal irritation, was determined by measuring the relative survival—the MTT conversion relative to the negative control-treated tissues.
The test articles, CV-8686 and AB11644, were provided as stock solutions (˜100 mM each) in DMSO. The test articles were administered to the test system as a 50 μM and 200 μM dilution in sterile, EPI-100-LLMM. Test article DMSO (vehicle control) was administered to the test system as a 0.2% dilution in sterile, EPI-100-LLMM.
The test articles were each prepared using the procedure as follows: starting from the stock concentrations provided, 2 μl of each test article were first diluted with the appropriate volume of EPI-100-LLMM to a final concentration of 200 μM. […]

[2] = target: T1, arylhydrocarbon receptor (AhR) (Homo sapiens, UniProt P35869); assay: HepG2-AhR-Luciferase assay; settings: EC50 (uM), 24 hours of treatment
T1 sequence (P35869 11-848): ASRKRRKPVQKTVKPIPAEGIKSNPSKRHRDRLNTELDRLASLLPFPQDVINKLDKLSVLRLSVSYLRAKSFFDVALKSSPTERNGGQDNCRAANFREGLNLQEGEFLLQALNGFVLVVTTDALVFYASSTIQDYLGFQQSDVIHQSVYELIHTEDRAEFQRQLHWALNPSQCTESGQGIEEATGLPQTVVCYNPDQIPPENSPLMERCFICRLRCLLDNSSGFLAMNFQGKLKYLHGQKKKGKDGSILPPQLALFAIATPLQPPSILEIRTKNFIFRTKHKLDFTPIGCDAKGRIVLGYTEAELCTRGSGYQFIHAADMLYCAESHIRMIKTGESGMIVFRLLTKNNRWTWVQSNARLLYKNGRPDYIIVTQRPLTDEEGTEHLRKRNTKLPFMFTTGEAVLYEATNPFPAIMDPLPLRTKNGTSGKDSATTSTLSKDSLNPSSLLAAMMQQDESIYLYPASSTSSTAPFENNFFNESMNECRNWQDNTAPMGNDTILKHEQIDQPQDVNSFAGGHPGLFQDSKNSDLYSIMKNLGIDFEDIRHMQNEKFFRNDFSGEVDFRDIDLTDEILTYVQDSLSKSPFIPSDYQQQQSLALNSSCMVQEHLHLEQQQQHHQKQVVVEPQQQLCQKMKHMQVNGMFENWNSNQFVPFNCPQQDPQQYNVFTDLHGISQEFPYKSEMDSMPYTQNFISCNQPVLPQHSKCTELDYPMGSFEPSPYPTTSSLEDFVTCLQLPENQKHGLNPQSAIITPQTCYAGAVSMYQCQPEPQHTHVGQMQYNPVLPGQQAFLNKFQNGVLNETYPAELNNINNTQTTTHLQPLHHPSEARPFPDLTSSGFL
Protocol: HepG2-AhR-Luc cells were purchased from Pharmaron, One-Glo Luciferase assay system was purchased from Promega. DMEM was purchased from Hyclone, and penicillin/streptomycin was purchased from Solabio.
Culture media for stably transfected HepG2 cells was prepared by supplementing DMEM with high glucose and L-glutamine, as well as 10% FBS.
HepG2-AhR-Luc cells were cultured in T-75 flasks at 37° C., 5% CO2, and 95% relative humidity. Cells were allowed to reach 80-90% confluence before detachment and splitting.
Cultivated cells were rinsed with 5 mL PBS. PBS was aspirated away, 1.5 mL trypsin was added to the flask, and cells were incubated at 37° C. for approximately 5 minutes or until the cells detached and floated. Trypsin was inactivated by adding excess serum-containing media.
The cell suspension was transferred to a conical tube and centrifuged at 120 g for 10 minutes to pellet the cells. Cells were resuspended in seeding media at a proper density. 40 μL of cells were transferred to a 384-well culture plate (5×10^3 cells/well). Plates were placed in the incubator at 37° C. for 24 hours.
Afterward, stock solutions of test compounds and omeprazole positive control were prepared. Compound solutions were transferred into the assay plate using Echo550. The plate was then placed back into the incubator for compound treatment.
Later, after 24 hours of treatment, the plate was removed from the incubator and allowed to cool at ambient temperature. 30 μL One-Glo reagent equal to that of the culture medium was added in each well. Cells were allowed to lyse for at least 3 minutes, and then measured in a luminometer.
Dose responses were graphed using the non-linear regression analysis in XLfit and EC50 values were also calculated.

[3] = system: MeWo cells; assay: Preliminary annexin V-FITC assay (Example 7); type: cell-based; settings: 6-hour treatment
Protocol: MeWo (ATCC® HTB-65™) and WM115 (ATCC® CRL-1675) cells were purchased from ATCC (Manassas, Va.) and maintained in the following: for MeWo:DMEM supplemented with 10% FBS; for WM115: RPMI 1640 supplemented with 10% FBS (10% FBS, 1% stabilized antibiotic anti-mycotic solution).
During the first set of studies, both MeWo and WM115 cells were treated with test compounds at 10 doses starting from 100 μM with 3-fold dilution. Staurosporine was used as positive control. After 6-hour treatment, cell apoptosis was assessed using an annexin V assay. The test compounds evaluated were CV-8684, CV-8685, CV-8686, CV-8687, and CV-8688.
For cell seeding, cells were harvested and the cell number was determined using Countess® cell counter. Cells were then diluted with culture medium to the desired density. 40 μL of cell suspension per well was added to the required number of wells in a 384-well plate (Corning 3712—clear bottom plate). The final cell density was 6,000 cells/well. After plating, the plates were incubated at 37° C., and 5% CO2 overnight.
For preparation of compound source plate, each test compound was dissolved in DMSO to 10 mM stock. 3-fold serial dilution was performed using an EVO200™ liquid handler (TECAN) to generate ten concentrations of test compound. 0.1% DMSO was employed as vehicle (negative) control. The compound source plate was then spun at room temperature at 1,000 RPM for 1 minute and agitated using a plate shaker for 2 minutes.
For compound treatment, 40 nL of compound were transferred from the compound source plate to the 384-well culture plate using liquid handler Echo550 (LabCyte Inc.). After 6-hour incubation, the plates were removed from the incubator for detection.
For the preliminary annexin V assay, the plates were removed from the incubator and allowed to equilibrate at room temperature for 15 minutes. Culture media was then removed. 20 μL of pre-mixed annexin V-FITC and Hoechst33342 dye working solution were added to each well. The cells were then incubated at room temperature for 20 minutes. […] Afterward, the plate was read using an Acumen eX3 plate reader. The relative activity was calculated according to the following formula: Activity (%)=100%×(CountAnnexin V/CountTotal cell), and EC50 was calculated using GraphPad Prism (v. 5.01).

[4] = system: MeWo cells; assay: Annexin V assay, additional evaluation (Example 8); type: cell-based; settings: 100, 10, 1 μM; 6, 24, 48, 72 hours
Protocol: (§1) To further investigate the impact of test compounds on apoptosis, multiple readouts, covering different stages of apoptosis, were carried out on both MeWo and WM115 cells. Both cell types were treated with test compounds at 3 doses (100 μM, 10 μM, and 1 μM). Staurosporine was used as a positive control. […] The test compounds evaluated were CV-8684. CV-8685, and CV-8688.
(§2) Cell seeding was performed as discussed above with the following exceptions: the final cell density was 4,000 cells/well for 6-hour and 24-hour detections, whereas 2,000 cells/well were used for 48-hour and 72-hour detections. For each time point. 384-well clear bottom plates (Corning 3712) and solid white bottom plates (Corning 3570) were prepared. The plates were incubated as discussed above.
(§3) For preparation of the compound source plate, each test compound was dissolved in DMSO to 10 mM stock. Two additional concentrations were generations by 10-fold dilution to 1 mM and 0.1 mM. Staurosporine was used as positive control and 1% DMSO was employed as vehicle (negative) control. The compound source plate was spun at room temperature at 1,000 RPM for 1 minute and agitated using a plate shaker for 2 minutes.
(§4) 400 nL of test compound was transferred from the compound source plate to 384-well culture plates using Echo550 liquid handler. After 6, 24, 48, and 72 hours, the plates were removed from the incubator for detections.
(§5) Culture media was removed and cells were washed twice with PBS. 20 μL of pre-mixed annexin V-FITC working solution was added to each well. The cells were incubated at room temperature for 20 minutes. Plates were read using Acumen eX3 to count the number of FITC-positive cells. The relative activity was calculated according to the following formula: Relative Activity (%)=100%×(Countsample/Countvehicle).

[5] = system: WM115 cells; assay: Annexin V assay, additional evaluation (Example 8); type: cell-based; settings: 100, 10, 1 μM; 6, 24, 48, 72 hours
Protocol: as §1, §2, §3, §4, §5

[6] = system: MeWo cells; assay: CellTiter-Glo cell viability assay (Example 9); type: cell-based; settings: 100, 10, 1 μM; 6, 24, 48, 72 hours
Protocol: (§6) CellTiter-Glo® 2.0 assay was purchased from Promega. Cell seeding, preparation of the compound source plate, and exposure of cells to test compounds were performed as described in Example 8.
(§7) CellTiter-Glo® reagents were thawed and equilibrated to room temperature before the experiment. 40 μL of CellTiter-Glo® reagent was then added to each well for detection (at 1:1 ratio to culture medium). The plates were then incubated at room temperature for 30 minutes and read using EnSpire (PerkinElmer) plate reader. The remaining activity was calculated according to the following formula: Remaining Activity (%)=100%×(Lumsample−Lumbkg)/(Lumvehicle−Lumbkg).

[7] = system: WM115 cells; assay: CellTiter-Glo cell viability assay (Example 9); type: cell-based; settings: 100, 10, 1 μM; 6, 24, 48, 72 hours
Protocol: as §6, §7

[8] = system: MeWo cells; assay: Lactate dehydrogenase (LDH) release assay (Example 10); type: cell-based; settings: 100, 10, 1 μM; 6, 24, 48, 72 hours
Protocol: (§8) The LDH assay quantitatively measures lactate dehydrogenase (“LDH”) released into the media from damaged cells as a biomarker for cytotoxicity and cytolysis.
(§9) CytoTox-ONE™ Homogenous Membrane Integrity Assay was purchased from Promega. Cell seeding, preparation of the compound source plate, and exposure of cells to test compounds were performed as described in Example 8.
(§10) Plates were then centrifuged at 1,000 RPM for 1 minute. 20 μL of cell culture medium was transferred into a new 384-well black solid plate. Then, 20 μL of CytoTOX-ONE™ was added into each well and incubated at room temperature for 10 minutes. Afterward, 10 μL of stop solution were added to each well, and the plates were agitated at 500 rpm for 1 minute. Plates were read using an excitation wavelength of 560 nm and an emission wavelength of 590 nm on EnSpire. The relative activity was calculated according to the following formula: Relative Activity (%)=100%×(Lumsample−Lumbkg)/(Lumvehicle−Lumbkg).

[9] = system: WM115 cells; assay: as above; type: cell-based; settings: 100, 10, 1 μM; 6, 24, 48, 72 hours
Protocol: as §8, §9, §10

[10] = system: MeWo cells; assay: Cell morphology after treatment (Example 6); type: cell-based; settings: 100 μM, 6 hours
[11] = system: WM115 cells; assay: Cell morphology after treatment (Example 6); type: cell-based; settings: 100 μM, 6 hours

Row | EC50 ([2]; Table 2) [µM] | EC50 ([2]; Table 1) [µM] | EC50 ([3]; Homo sapiens, MeWo, 10 doses starting from 100 μM, read-out: EC50 of annexin V staining) [µM] | Structure (SMILES) | viability of the tissues, dose response [1] | annexin V staining ([3]; preliminary screen) | apoptosis induction (annexin V binding) [4] | apoptosis induction (annexin V binding) [5] | inhibition of cell viability [6] | inhibition of cell viability [7] | LDH release [8] | LDH release [9] | cell morphology [10] | cell morphology [11]
1 | 14.9 |  |  | c1ccc2c(C(c3c[nH]c4ccccc34)C3CC3)c[nH]c2c1 [AB11644] | slightly lower viability |  |  |  |  |  |  |  |  | 
2 |  | 3.17 |  | Cc1ccc2c(Cc3[nH]c4ccccc4c3C=O)c[nH]c2c1 [CV-8686] | slightly lower viability |  |  |  |  |  |  |  |  | 
3 |  | 19.9 | 0.909 | CC(c1[nH]c2ccccc2c1C=O)c1c[nH]c2ccccc12 (stereo not drawn) [CV-8688] |  | markedly increased annexin V staining | showed the induction effect within 6 hours of treatment in a dose-dependent manner | showed the induction effect within 6 hours of treatment in a dose-dependent manner | inhibited viability of both cell types in a dose-dependent manner | inhibited viability of both cell types in a dose-dependent manner | induced LDH release at the highest concentration tested | induced LDH release at the highest concentration tested | significantly affected | significantly affected
